Measurements as given in PubChem BioAssay (NCI).
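Protocol summary: plate cells (96-well), add compound at 5 concentrations, incubate 48 h, interpolate endpoints linearly. Abbreviation: GI50, concentration required for 50% inhibition of growth. TGI: concentration producing complete growth inhibition.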

Experiments:
Assay in all cases: NCI anticancer screen, dose series, 48 h
CAKI-1 renal = tested on: CAKI-1 renal
DU-145 prostate = tested on: DU-145 prostate
OVCAR-4 ovarian = tested on: OVCAR-4 ovarian
T-47D breast = tested on: T-47D breast
SNB-75 CNS = tested on: SNB-75 CNS
HS 578T breast = tested on: HS 578T breast
SN12C renal = tested on: SN12C renal
SR leukemia = tested on: SR leukemia
SF-268 CNS = tested on: SF-268 CNS
SF-539 CNS = tested on: SF-539 CNS
NCI/ADR-RES ovarian = tested on: NCI/ADR-RES ovarian
K-562 leukemia = tested on: K-562 leukemia
MALME-3M melanoma = tested on: MALME-3M melanoma
NCI-H226 lung = tested on: NCI-H226 lung
SNB-19 CNS = tested on: SNB-19 CNS
RXF 393 renal = tested on: RXF 393 renal
UACC-62 melanoma = tested on: UACC-62 melanoma
HOP-62 NSCLC = tested on: HOP-62 NSCLC
SW-620 colon = tested on: SW-620 colon
HCT-15 colon = tested on: HCT-15 colon
SK-OV-3 ovarian = tested on: SK-OV-3 ovarian
SK-MEL-5 melanoma = tested on: SK-MEL-5 melanoma
HT29 colon = tested on: HT29 colon
NCI-H460 lung = tested on: NCI-H460 lung
MDA-MB-231 breast = tested on: MDA-MB-231 breast
MOLT-4 leukemia = tested on: MOLT-4 leukemia
RPMI-8226 leukemia = tested on: RPMI-8226 leukemia
LOX IMVI melanoma = tested on: LOX IMVI melanoma
TK-10 renal = tested on: TK-10 renal
NCI-H522 lung = tested on: NCI-H522 lung
EKVX NSCLC = tested on: EKVX NSCLC
UO-31 renal = tested on: UO-31 renal
A498 renal = tested on: A498 renal
PC-3 prostate = tested on: PC-3 prostate
OVCAR-8 ovarian = tested on: OVCAR-8 ovarian
SF-295 CNS = tested on: SF-295 CNS
COLO 205 colon = tested on: COLO 205 colon
UACC-257 melanoma = tested on: UACC-257 melanoma
SK-MEL-2 melanoma = tested on: SK-MEL-2 melanoma
M14 melanoma = tested on: M14 melanoma
786-0 renal = tested on: 786-0 renal
HCC-2998 colon = tested on: HCC-2998 colon
KM12 colon = tested on: KM12 colon
IGROV1 ovarian = tested on: IGROV1 ovarian
OVCAR-5 ovarian = tested on: OVCAR-5 ovarian
OVCAR-3 ovarian = tested on: OVCAR-3 ovarian
U251 CNS = tested on: U251 CNS
CCRF-CEM leukemia = tested on: CCRF-CEM leukemia
MDA-MB-435 = tested on: MDA-MB-435
A549 NSCLC = tested on: A549 NSCLC
BT-549 breast = tested on: BT-549 breast
HOP-92 NSCLC = tested on: HOP-92 NSCLC
ACHN renal = tested on: ACHN renal
MCF7 breast = tested on: MCF7 breast
NCI-H23 lung = tested on: NCI-H23 lung
SK-MEL-28 melanoma = tested on: SK-MEL-28 melanoma

COc1cc(/C=N/NC(=O)c2cnn3c2NC(c2ccccc2)C3)ccc1Oc1ccccc1 (configuration not stated)
GI50 (CAKI-1 renal): 996 nM
TGI (CAKI-1 renal): 10200 nM
GI50 (DU-145 prostate): 1420 nM
TGI (DU-145 prostate): 4840 nM
GI50 (OVCAR-4 ovarian): 1410 nM
TGI (OVCAR-4 ovarian): 3780 nM
GI50 (T-47D breast): 998 nM
TGI (T-47D breast): 16900 nM
GI50 (SNB-75 CNS): 1300 nM
TGI (SNB-75 CNS): 3410 nM
GI50 (HS 578T breast): 1650 nM
TGI (HS 578T breast): 5220 nM
GI50 (SN12C renal): 1780 nM
TGI (SN12C renal): 4220 nM
GI50 (SR leukemia): 488 nM
TGI (SR leukemia): 10000 nM
GI50 (SF-268 CNS): 2460 nM
TGI (SF-268 CNS): 14600 nM
GI50 (SF-539 CNS): 1030 nM
TGI (SF-539 CNS): 2510 nM
GI50 (NCI/ADR-RES ovarian): 1730 nM
TGI (NCI/ADR-RES ovarian): 9590 nM
GI50 (K-562 leukemia): 571 nM
TGI (K-562 leukemia): 18600 nM
GI50 (MALME-3M melanoma): 1210 nM
TGI (MALME-3M melanoma): 5260 nM
GI50 (NCI-H226 lung): 2170 nM
TGI (NCI-H226 lung): 7950 nM
GI50 (SNB-19 CNS): 1430 nM
TGI (SNB-19 CNS): 8310 nM
GI50 (RXF 393 renal): 1500 nM
TGI (RXF 393 renal): 4530 nM
GI50 (UACC-62 melanoma): 888 nM
TGI (UACC-62 melanoma): 7300 nM
GI50 (HOP-62 NSCLC): 1180 nM
TGI (HOP-62 NSCLC): 4340 nM
GI50 (SW-620 colon): 868 nM
TGI (SW-620 colon): 10100 nM
GI50 (HCT-15 colon): 559 nM
TGI (HCT-15 colon): 3150 nM
GI50 (SK-OV-3 ovarian): 1470 nM
TGI (SK-OV-3 ovarian): 10600 nM
GI50 (SK-MEL-5 melanoma): 734 nM
TGI (SK-MEL-5 melanoma): 3940 nM
GI50 (HT29 colon): 432 nM
TGI (HT29 colon): 1760 nM
GI50 (NCI-H460 lung): 875 nM
TGI (NCI-H460 lung): 2830 nM
GI50 (MDA-MB-231 breast): 1660 nM
TGI (MDA-MB-231 breast): 5030 nM
GI50 (MOLT-4 leukemia): 1990 nM
TGI (MOLT-4 leukemia): 20400 nM
GI50 (RPMI-8226 leukemia): 2830 nM
TGI (RPMI-8226 leukemia): 31400 nM
GI50 (LOX IMVI melanoma): 736 nM
TGI (LOX IMVI melanoma): 2360 nM
GI50 (TK-10 renal): 2620 nM
TGI (TK-10 renal): 11500 nM
GI50 (NCI-H522 lung): 366 nM
TGI (NCI-H522 lung): 2620 nM
GI50 (EKVX NSCLC): 2030 nM
TGI (EKVX NSCLC): 14300 nM
GI50 (UO-31 renal): 1690 nM
TGI (UO-31 renal): 12200 nM
GI50 (A498 renal): 1180 nM
TGI (A498 renal): 7030 nM
GI50 (PC-3 prostate): 875 nM
TGI (PC-3 prostate): 3590 nM
GI50 (OVCAR-8 ovarian): 2570 nM
TGI (OVCAR-8 ovarian): 12200 nM
GI50 (SF-295 CNS): 522 nM
TGI (SF-295 CNS): 2080 nM
GI50 (COLO 205 colon): 819 nM
TGI (COLO 205 colon): 6970 nM
GI50 (UACC-257 melanoma): 2910 nM
TGI (UACC-257 melanoma): 15600 nM
GI50 (SK-MEL-2 melanoma): 1140 nM
TGI (SK-MEL-2 melanoma): 4890 nM
GI50 (M14 melanoma): 761 nM
TGI (M14 melanoma): 10700 nM
GI50 (786-0 renal): 1190 nM
TGI (786-0 renal): 5650 nM
GI50 (HCC-2998 colon): 3600 nM
TGI (HCC-2998 colon): 30000 nM
GI50 (KM12 colon): 528 nM
TGI (KM12 colon): 3000 nM
GI50 (IGROV1 ovarian): 1360 nM
TGI (IGROV1 ovarian): 10800 nM
GI50 (OVCAR-5 ovarian): 2340 nM
TGI (OVCAR-5 ovarian): 11900 nM
GI50 (OVCAR-3 ovarian): 346 nM
TGI (OVCAR-3 ovarian): 1310 nM
GI50 (U251 CNS): 1310 nM
TGI (U251 CNS): 3590 nM
GI50 (CCRF-CEM leukemia): 1430 nM
TGI (CCRF-CEM leukemia): > 100000 nM
GI50 (MDA-MB-435): 293 nM
TGI (MDA-MB-435): 1430 nM
GI50 (A549 NSCLC): 1500 nM
TGI (A549 NSCLC): 5000 nM
GI50 (BT-549 breast): 864 nM
TGI (BT-549 breast): 3160 nM
GI50 (HOP-92 NSCLC): 2060 nM
TGI (HOP-92 NSCLC): 8580 nM
GI50 (ACHN renal): 1330 nM
TGI (ACHN renal): 7310 nM
GI50 (MCF7 breast): 436 nM
TGI (MCF7 breast): 10200 nM
GI50 (NCI-H23 lung): 1630 nM
TGI (NCI-H23 lung): 10800 nM
GI50 (SK-MEL-28 melanoma): 1380 nM
TGI (SK-MEL-28 melanoma): 6940 nM
